Legend:
Type in all cases: biochemical
SaDAH [1] = molecular target: T1, SaDAH (Sinomenium acutum, UniProt A0A6M3RD65, G226D); assay: in vitro enzyme assay, LC-HRAM-MS; conditions: 2OG 500 µM, NaCl 1 mM, Fe(II) 2 mM, ascorbate 5 mM, Tris pH 8.0, room temperature; hydroxylation
T1 construct: codon-optimized, N-terminal 8xHis-TEV tag (pHis8-4) cleaved, E. coli BL21(DE3)

SaDAH [2] = molecular target: T2, SaDAH (Sinomenium acutum, UniProt A0A6M3RD65); assay: LC-MS quantification of (−)-acutumine formed; conditions: 2OG 500 µM, NaCl 1 mM, ascorbate 5 mM, (NH4)2Fe(SO4)2 2 mM; 30 nM enzyme, 10 min; chlorination
T2 construct: codon-optimized, N-terminal 8xHis-TEV tag (pHis8-4) cleaved, E. coli BL21(DE3)

McDAH = molecular target: T3, McDAH (Menispermum canadense, UniProt A0A6M3RHU8); assay: in vitro enzyme assay, LC-MS; conditions: 2OG-dependent chlorination, 1 mM NaCl
T3 sequence (A0A6M3RHU8 1-351): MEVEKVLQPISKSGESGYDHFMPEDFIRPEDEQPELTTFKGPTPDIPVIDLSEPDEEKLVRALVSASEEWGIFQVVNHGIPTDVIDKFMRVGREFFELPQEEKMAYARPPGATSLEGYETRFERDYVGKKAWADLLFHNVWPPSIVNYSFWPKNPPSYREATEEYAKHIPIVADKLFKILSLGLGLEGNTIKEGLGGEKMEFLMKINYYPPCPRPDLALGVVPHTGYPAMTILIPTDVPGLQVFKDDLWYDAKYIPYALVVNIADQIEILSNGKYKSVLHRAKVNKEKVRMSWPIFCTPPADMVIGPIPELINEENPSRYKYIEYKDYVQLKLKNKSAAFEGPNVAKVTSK

T1 sequence (A0A6M3RD65 entry or part of it G226D): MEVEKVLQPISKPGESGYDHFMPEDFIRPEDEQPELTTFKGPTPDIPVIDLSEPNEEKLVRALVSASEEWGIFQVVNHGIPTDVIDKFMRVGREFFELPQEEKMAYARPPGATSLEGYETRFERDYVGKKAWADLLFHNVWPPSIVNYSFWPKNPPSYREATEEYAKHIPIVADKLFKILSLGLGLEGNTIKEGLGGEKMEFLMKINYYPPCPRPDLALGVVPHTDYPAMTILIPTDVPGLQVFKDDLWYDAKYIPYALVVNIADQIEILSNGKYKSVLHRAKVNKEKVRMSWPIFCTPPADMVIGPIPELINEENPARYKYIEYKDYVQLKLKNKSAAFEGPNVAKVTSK
T2 sequence (A0A6M3RD65 entry or part of it): as the sequence (A0A6M3RD65 entry or part of it G226D) above, with D226G counted along it

Km (SaDAH [2]): 18.4 ± 7.13 µM
SMILES: COC1=CC(=O)C2(CCC34C(OC)=C(OC)C(=O)CC23CCN4C)C1O (single isomer, unassigned; (-)) [compound 5, (−)-dechloroacutumine]
in vitro enzyme assay, LC-HRAM-MS (SaDAH [1]): exhibits exclusive (−)-dechloroacutumine hydroxylase activity to give the hydroxylation product 11-hydroxy-dechloroacutumine | in vitro enzyme assay, LC-MS (McDAH): Recombinant McDAH exhibits identical activity to SaDAH

Reference: article PMC7170919, “The chloroalkaloid (−)-acutumine is biosynthesized via a Fe(II)- and 2-oxoglutarate-dependent halogenase in Menispermaceae plants” (Nature Communications, 2020)
